The values below come from publication PMC10820816, “Drug Synergism of Anticancer Action in Combination with Favipiravir and Paclitaxel on Neuroblastoma Cells” (Medicina, 2023).

SMILES strings stand for the structures. In brackets after ≈: the same amount, converted by molar mass.

For data set [1], the system named is HDFa healthy cell cultures. As to the kind of experiment: Hoechst 33258 fluorescent staining and nuclear abnormality analysis. Type of data set: cell-based, human. Set-up: MN (micronuclei) / Ntc (notched nuclei): unit not given here. The settings on record: for Abnormality Numbers/1000 Cells / L (lobed nuclei) / MN (micronuclei) / Ntc (notched nuclei): 24 h; for nuclear anomaly change compared to negative control: Hoechst 33258 staining. As for the experimental part: (§1) The human dermal fibroblast cell (HDFa, ATCC® PCS-201-012™) culture was grown in the DMEM medium supplemented with 1% penicillin/streptomycin, 10% FBS and 5% CO2 at a 37 °C temperature until the cultures reached 80% confluency. The human neuroblastoma cell (SH-SY5Y, ATCC® CRL-2266™) line was cultured in DMEM/F12 culture media containing 1% penicillin/streptomycin and 10% fetal bovine serum at 37 °C and 5% CO2. Neuroblastoma cell cultures were incubated to grow up to 80% cell density.
The Hoechst 33258 nuclear staining method was used to monitor abnormalities in the nuclear structures of a healthy HDFa cell culture. Tested drugs were applied to the HDFa cell cultures at various concentrations, and the cell cultures were incubated at 37 °C for 24 h. Then, HDFa cells were fixed by using 4% paraformaldehyde at 4 °C for 30 min. After the incubation period, the cell cultures were washed with PBS two times. A total of 1 µM Hoechst 33258 fluorescent dye was added to the samples and incubated at room temperature for 5 min. Nuclear morphologies were monitored and photographed under a fluorescent microscope (Leica® DM IL LED, Wetzlar, Germany).

In data set [2] the test system is SHSY-5Y neuroblastoma cells. As to the kind of experiment: Flow cytometry analysis (FITC Annexin V / PI). Type of data set: cell-based, human. The settings on record: FPV alone 39.06, 19.53, 9.76 µg/mL. The protocol:
as §1
(§2) Flow cytometry analysis was performed by using the FITC Annexin V/Dead Cell Apoptosis Kit with FITC Annexin V and PI according to the producer’s recommendations. Further, 5 × 10^4 cells were collected by trypsinization and centrifugation. The cells were resuspended in 500 μL of 1× binding buffer and 5 μL of propidium iodide, and the Annexin V-FITC (50 μg/mL) dyes were added to the cultures and incubated in the dark for 5 min. Finally, the cultures were analyzed via the use of flow cytometry (The CyFlow® Cube 6, Norderstedt, Germany).
(In general: A flow cytometer gives signals particle by particle.)

For a further data set, the system named is CYP2C8. More on the design: method as in PMID 34339547. The settings on record: cited from earlier work.
A short description of data set [3]: MTT cell viability assay on SH-SY5Y neuroblastoma cells. Type of data set: cell-based, human. The settings on record: human, SH-SY5Y neuroblastoma cells, SHSY-5Y, PTX 10 µg/mL alone. The protocol: as §1
(§3) Cell viability analyses were performed on HDFa and SH-SY5Y by using the 3-(4,5-dimethylthiazol-2-yl)-2,5-diphenyltetrazolium bromide (MTT) technique. Briefly, the compounds were applied to cell cultures at defined concentration intervals (1.65 µg/mL to 100 µg/mL) for 24 h. At the end of the incubation period, 10 µL of the MTT solution ([…]) was added to each culture well, and the samples were incubated at 37 °C for 3 h. Then, the culture mediums were discarded, and 100 µL of DMSO was added to the samples to dissolve formazan crystal to obtain a purple/blue color. A microplate reader was used to measure the color intensities at a 570 nm wavelength.

The test system of data set [4] is SHSY-5Y neuroblastoma cells. The data set is described as above. Type of data set: cell-based, human. To be noted: 24 h, p < 0.05. The protocol:
as §1, §3

Data set [5] concerns human fibroblast (HDFa) cells. The experiment in a line: MTT cell viability assay on human fibroblast (HDFa) cells. Type of data set: cell-based. The settings on record: 24 h, p < 0.05. As for the experimental part: as §1, §3
In general terms: Formazan colour is commonly taken as a measure of viable cells.

A short description of data set [6]: Flow cytometry analysis (FITC Annexin V / PI). To be noted: human, SH-SY5Y neuroblastoma cells, SHSY-5Y, PTX 10 µg/mL. Type of data set: cell-based, human. The protocol: as §1, §2

Regarding `NC(=O)c1nc(F)c[nH]c1=O` [FPV, Favipiravir], in data set [1] (FPV 9.7 µg/mL), the “Abnormality Numbers/1000 Cells” value is reported as 0.020 ± 0.008 a, the “L (lobed nuclei)” value stood at 7, the “MN (micronuclei)” value is listed as 8 and the “Ntc (notched nuclei)” value is 5. Moreover, in data set [1] (FPV 19.5 µg/mL), the “Abnormality Numbers/1000 Cells” value came out at 0.019 ± 0.016 a, the “L (lobed nuclei)” value was determined as 6, the “MN (micronuclei)” value is on record as 6 and the “Ntc (notched nuclei)” value amounted to 7. Further, in data set [1] (FPV 39 µg/mL), the “Abnormality Numbers/1000 Cells” value was determined as 0.019 ± 0.007 a, the “L (lobed nuclei)” value stood at 7, the “MN (micronuclei)” value worked out at 7 and the “Ntc (notched nuclei)” value is recorded as 5. Also, the “nuclear anomaly change compared to negative control” value in data set [1] is recorded as “no significant numerical anomaly change”. For the same compound, the “change in cell viability” value in data set [2] is listed as “did not cause a significant change in cell viability”. In addition, the “IC50, concentration-dependent inhibitory effect on CYP2C8” value in the data set on CYP2C8 was 74.9 µg/mL (≈ 477 µM).

For the compound `CC(=O)O[C@H]1C(=O)[C@@]2(C)[C@H]([C@H](OC(=O)c3ccccc3)[C@]3(O)C[C@H](OC(=O)[C@H](O)[C@@H](NC(=O)c4ccccc4)c4ccccc4)C(C)=C1C3(C)C)[C@]1(OC(C)=O)CO[C@@H]1C[C@@H]2O` [PTX, Paclitaxel], the viability (as a rule, the share of living cells, or the viability signal relative to a control) at 24 h, 10 µg/mL in data set [3] was found to be 37%. The “concentrations causing a significant decrease in cell viability (cytotoxic effect)” value in data set [4] is not below 312.5 ng/mL. Further, in data set [5], the “concentrations causing a significant cytotoxic / viability-reducing effect” value was 10000 ng/mL. The “nuclear anomaly change compared to negative control” value in data set [1] was “no significant numerical anomaly change”. Also, in data set [1] (PTX 10 µg/mL), the “Abnormality Numbers/1000 Cells” value worked out at 0.019 ± 0.013 a, the “L (lobed nuclei)” value was found to be 5, the “MN (micronuclei)” value was found to be 8 and the “Ntc (notched nuclei)” value turned out to be 6. This compound also showed a viability at 10 µg/mL in data set [6] of approximately 37%.
